Test results as given in EP4553077A1 (Kinoteck Therapeutics Co., Ltd, priority 2022, dated 2024).

Assays:
Ba/F3-TEL-FGFR2 = Ba/F3-TEL-FGFR2 (Homo sapiens, UniProt P21802+P41212); assay: Cell viability (proliferation inhibition) of Ba/F3 cells, CellTiter Glo; conditions: read-out: Ba/F3 cell FGFR2 (IC50 nM), 72 h
[1] = Rat liver cells metabolic stability; format: in vitro ADME; conditions: rat liver cells 0.5 × 10^6 cells/mL
Procedure: Test compound and control drug verapamil powder were prepared into […] stock solution using DMSO, and they were diluted with 50% acetonitrile/50% water to 100 µM working solution before use.
• 1) 49.5 mL Williams E Medium and 0.5 mL glutaMAX were mixed as incubation medium. The liver cell resuscitation solution and incubation solution were preheated in a 37 °C water bath for at least 15 min before use. • 2) A tube of liver cells stored at ultra-low temperature was taken and ensured that they remain in a low-temperature frozen state before resuscitation. The liver cells were placed quickly in a 37 °C water bath and shaken gently until all ice crystals were dispersed. • 3) The contents of the liver cells tubes were poured into a centrifuge tube containing 50 mL of resuscitation medium, and they were centrifuged at 100 g for 10 min. After centrifugation, the resuscitation medium was aspirated, and sufficient incubation medium was added to obtain a cell suspension with a cell density of approximately 1.0 × 10^6 cells/mL. • 4) AO/PI staining was used to count liver cells and determine viable cell density, the survival rate of liver cells must be greater than 75%. The liver cell suspension was diluted with incubation medium to a viable cell density of 0.5 × 10^6 cells/mL.
• 1) 198 µL live cell suspension was transferred to a 96 well deep well plate, and the deep well plate was placed on a vortex and preheat in the incubator for 10 min. • 2) 2 µL 100 µM test compound or positive control compound was added to each well for reaction initiation, and the deep well plate was placed back on the incubator vortex. • 3) The incubation plate was placed into the incubator for incubation. 25 µL suspension was taken at 0.5, 15, 30, 60, 90, and 120 min, and 6-fold (150 µL) acetonitrile containing internal standard quencher (100 nM alprazolam, 200 nM caffeine, and 100 nM toluenesulfonylbutamide) was added to a new 96 well plate to terminate the reaction. The plate was vortexed for 5 min and centrifuged at 3220 rpm and 4 °C for 45 min to precipitate the protein. 100 µL of supernatant was transferred to the sample plate, and 100 µL pure water was added and mixed well for UPLC-MS/MS analysis. All incubation systems were conducted in a dual parallel manner.
All data was calculated using Microsoft Excel software. Peak area was detected by extracting ion chromatogram. In vitro half-life (T1/2) and in vitro clearance rate (in µL/min/10^6 cells) of the parent drug were detected by linearly fitting of the natural logarithm of the […] percentage of the parent drug versus time. Table 6 Results of rat liver cell stability test

CYP2C19 = CYP2C19 (Homo sapiens, UniProt P33261); assay: Cytochrome P450 inhibition in human liver microsomes
Procedure: (§1) Preparation of positive control inhibitor and compound working solution: 16 µL inhibitor stock solution or compound stock solution for each CYP subtype were taken and added to 24 µL DMSO. Then, they were diluted gradually three times with diluent to obtain different concentrations of test sample/positive control inhibitor working solution (7 concentrations each except for blank)
(§2) Preparation of test sample group working solution: The human liver microsomal working solution was divided into 96 well plates at 796 µL per well, and then 4 µL test sample working solution was added.
(§3) Preparation of positive control group working solution: The human liver microsomal working solution was divided into 96 well plates at 199 µL per well, and then 1 µL positive control inhibitor working solution was added.
(§4) Blank solvent working solution preparation: The human liver microsomal working solution was divided into 96 well plates at 199 µL per well, and then 1 µL DMSO was added.
(§5) (a) 30 µL test sample/positive control inhibitor working solution or 30 µL blank solvent working solution per well were transferred into a 96 well plate, and 15 µL substrate working solution of different enzyme subtypes transferred into each well, and mixed evenly. (b) The above incubation plates and 4 x NADPH working solution were preheated at 37 °C for 5 min. (c) 15 µL preheated 4 × NADPH working solution per well was transferred into the incubation plate, and the reaction initiated, and continued to be incubated at 37 °C.
(§6) (d) After the reaction time was reached, 180 µL termination solution was added to terminate the reaction. […] (f) After centrifugation, 80 µL supernatant was taken and added to 120 µL ultrapure water, and after it was mixed evenly, LC-MS/MS was used to analyze the metabolites of the probe substrate.

CYP1A2 = target: T1, CYP1A2 (Homo sapiens, UniProt P05177); assay: as above
T1 sequence (P05177 1-516): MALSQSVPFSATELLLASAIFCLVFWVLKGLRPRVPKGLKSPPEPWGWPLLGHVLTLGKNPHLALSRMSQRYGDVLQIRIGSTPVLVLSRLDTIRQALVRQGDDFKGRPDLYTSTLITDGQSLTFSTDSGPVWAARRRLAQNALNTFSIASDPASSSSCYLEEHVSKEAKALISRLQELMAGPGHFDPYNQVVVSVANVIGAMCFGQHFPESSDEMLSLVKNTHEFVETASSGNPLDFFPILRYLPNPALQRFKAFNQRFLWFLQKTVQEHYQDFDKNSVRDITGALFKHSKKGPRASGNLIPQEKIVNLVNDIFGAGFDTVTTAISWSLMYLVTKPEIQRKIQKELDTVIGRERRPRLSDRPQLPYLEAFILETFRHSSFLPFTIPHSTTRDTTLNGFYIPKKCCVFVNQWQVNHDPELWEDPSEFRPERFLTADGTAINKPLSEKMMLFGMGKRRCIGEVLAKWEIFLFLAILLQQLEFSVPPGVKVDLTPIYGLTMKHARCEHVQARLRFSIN
Procedure: as §1, §2, §3, §4, §5, §6

CYP3A4 = CYP3A4 (Homo sapiens, UniProt P08684); assay: as above
Procedure: as §1
(§7) Preparation of liver microsomal working solution: 300 µL human liver microsomes (20.0 mg/mL) was taken and added to 29700 µL PBS and mixed well, and the concentration of the prepared human liver microsomal working solution was 0.200 mg/mL.
(§8) Preparation of 4 x NADPH working solution: A certain weight of NADPH tetrasodium salt was weighted and dissolved to a suitable volume of PBS to obtain NADPH working solution, with a concentration of 8.00 mM.
as §2, §3, §4
(§9) (a) 30 µL test sample/positive control inhibitor working solution or 30 µL blank solvent working solution per well were transferred into a 96 well plate, and 15 µL substrate working solution of different enzyme subtypes transferred into each well, and mixed evenly. (b) The above incubation plates and 4 x NADPH working solution were preheated at 37 °C for 5 min. (c) 15 µL preheated 4 × NADPH working solution per well was transferred into the incubation plate, and the reaction initiated, and continued to be incubated at 37 °C. The incubation time is as follows:
as §6

[2] = Pharmacokinetic test in rats; format: in vivo, male SD rats; conditions: rat, plasma, oral gavage administration, 10 mg/kg
Summary of the method: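 Male SD rats (180-220 g, fasted overnight, n=3 per route) received 10 mg/kg by oral gavage or 1 mg/kg intravenously. Plasma was sampled from 5 min to 24 h post-dose and analysed by LC-MS/MS after protein precipitation. Parameters came from non-compartmental analysis.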

CYP2D6 = CYP2D6 (Homo sapiens, UniProt P10635); assay: Cytochrome P450 inhibition in human liver microsomes
Procedure: as §1, §7, §8, §2, §3, §4, §9, §6

hERG = hERG (Homo sapiens, UniProt Q12809); assay: Manual patch clamp, hERG channel current in HEK-293 cells
Procedure: The test compound diluents were diluted with extracellular fluid containing 0.5% F68 in sequence to prepare working solutions of 30 µM, 10 µM, 3 µM, 1 µM and 0.3 µM, and 0.3% DMSO was ensured.
The test compound diluents were diluted with extracellular fluid containing 0.5% F68 in sequence to prepare working solutions with concentrations of 30 µM, 10 µM, 3 µM, 1 µM and 0.3 µM, and 0.3% DMSO was ensured.
Cells were inoculated into 6 cm cell culture dishes, with a total of 2.5 × 10^5 cells per dish (final volume: 5 mL). To maintain the electrophysiological activity of cells, the cell density must not exceed 80%.
The voltage stimulation protocol for recording hERG currents using whole cell patch clamp was as follows: when a whole cell seal was formed, the cell membrane voltage was clamped at -80 mV. […] Data was collected repeatedly every 10 s to observe the effect of the drug on hERG tail current. The experimental data was collected by IPA amplifier (Sutter Instrument) and stored in SutterPatch (with Igor Pro) software.
When the hERG current recorded by the whole cell was stabilized, administration began, and each drug concentration acted for about 5 min (or until the current was stabilized), and then the next concentration was detected, multiple concentrations were detected for each test compound. The cover glass covered with cells was placed in the recording bath under an inverted microscope, the blank control solution and the test compound working solution sequentially flowed through the recording bath from low concentration to high concentration using gravity perfusion to act on the cells, liquid exchange was performed using a peristaltic pump during recording. The current of each cell detected in the extracellular fluid without the compound serves as its own control group. Each concentration should be independently tested twice using at least two cells. All electrophysiological tests were performed at room temperature.

Ba/F3-TEL-FGFR1 = Ba/F3-TEL-FGFR1 (Homo sapiens, UniProt P11362+P41212); assay: Cell viability (proliferation inhibition) of Ba/F3 cells, CellTiter Glo; conditions: read-out: Ba/F3 cell FGFR1 (IC50 nM), 72 h
CYP2C9 = CYP2C9 (Homo sapiens, UniProt P11712); assay: Cytochrome P450 inhibition in human liver microsomes
Chain of CYP2C9 (P11712 whole entry): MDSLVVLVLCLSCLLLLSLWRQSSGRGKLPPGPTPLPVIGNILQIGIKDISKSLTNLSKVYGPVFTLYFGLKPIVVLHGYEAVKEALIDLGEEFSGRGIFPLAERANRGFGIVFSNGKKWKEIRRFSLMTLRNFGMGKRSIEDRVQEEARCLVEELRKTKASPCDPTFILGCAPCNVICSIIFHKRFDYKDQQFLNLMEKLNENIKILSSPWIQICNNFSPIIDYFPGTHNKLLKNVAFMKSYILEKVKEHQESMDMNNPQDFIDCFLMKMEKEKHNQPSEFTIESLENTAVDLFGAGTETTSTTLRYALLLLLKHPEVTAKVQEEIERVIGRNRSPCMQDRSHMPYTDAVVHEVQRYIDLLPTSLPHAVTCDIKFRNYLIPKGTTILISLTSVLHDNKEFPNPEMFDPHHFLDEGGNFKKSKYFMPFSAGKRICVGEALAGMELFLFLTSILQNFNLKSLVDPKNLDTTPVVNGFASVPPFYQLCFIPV
Procedure: as §1, §2, §3, §4, §5, §6

Chain of hERG (Q12809 whole entry): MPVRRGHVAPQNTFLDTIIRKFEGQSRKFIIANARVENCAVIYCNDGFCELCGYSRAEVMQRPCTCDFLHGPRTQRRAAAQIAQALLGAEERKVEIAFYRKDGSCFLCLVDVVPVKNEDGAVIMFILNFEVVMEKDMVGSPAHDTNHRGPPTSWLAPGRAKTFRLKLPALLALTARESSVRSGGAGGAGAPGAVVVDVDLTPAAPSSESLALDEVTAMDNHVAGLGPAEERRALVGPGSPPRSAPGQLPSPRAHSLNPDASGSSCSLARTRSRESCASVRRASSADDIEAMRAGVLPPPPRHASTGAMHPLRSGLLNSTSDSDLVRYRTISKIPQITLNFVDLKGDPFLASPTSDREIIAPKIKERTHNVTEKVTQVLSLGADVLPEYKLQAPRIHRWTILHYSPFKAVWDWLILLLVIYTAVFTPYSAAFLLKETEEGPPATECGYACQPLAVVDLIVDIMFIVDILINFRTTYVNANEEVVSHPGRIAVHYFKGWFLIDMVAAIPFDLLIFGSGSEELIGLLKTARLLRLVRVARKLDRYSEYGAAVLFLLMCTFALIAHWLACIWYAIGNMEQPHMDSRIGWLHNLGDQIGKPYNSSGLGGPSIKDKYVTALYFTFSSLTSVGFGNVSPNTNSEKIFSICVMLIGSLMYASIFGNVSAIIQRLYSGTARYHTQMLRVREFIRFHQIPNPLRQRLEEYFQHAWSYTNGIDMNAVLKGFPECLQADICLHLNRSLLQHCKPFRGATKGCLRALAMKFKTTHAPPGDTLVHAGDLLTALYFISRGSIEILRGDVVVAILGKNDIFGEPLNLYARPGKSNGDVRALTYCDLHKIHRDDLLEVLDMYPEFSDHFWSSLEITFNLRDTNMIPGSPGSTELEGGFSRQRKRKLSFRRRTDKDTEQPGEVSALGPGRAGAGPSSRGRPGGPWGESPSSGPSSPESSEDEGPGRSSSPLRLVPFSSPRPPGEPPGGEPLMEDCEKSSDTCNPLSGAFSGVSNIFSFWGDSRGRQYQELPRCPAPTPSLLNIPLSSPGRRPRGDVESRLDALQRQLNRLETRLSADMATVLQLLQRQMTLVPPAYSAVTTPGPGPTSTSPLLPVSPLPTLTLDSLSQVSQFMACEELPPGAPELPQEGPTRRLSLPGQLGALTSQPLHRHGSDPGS
Chain of Ba/F3-TEL-FGFR2 (P21802 481-770 limits assumed, one chain of several): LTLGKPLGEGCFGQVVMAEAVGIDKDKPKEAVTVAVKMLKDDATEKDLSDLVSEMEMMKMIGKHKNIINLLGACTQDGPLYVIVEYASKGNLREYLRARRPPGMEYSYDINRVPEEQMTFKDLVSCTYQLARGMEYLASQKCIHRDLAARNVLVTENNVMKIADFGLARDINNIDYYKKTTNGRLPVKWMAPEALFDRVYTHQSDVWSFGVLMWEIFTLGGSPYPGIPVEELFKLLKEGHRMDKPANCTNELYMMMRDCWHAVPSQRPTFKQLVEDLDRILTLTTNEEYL
Chain of CYP2D6 (P10635 whole entry): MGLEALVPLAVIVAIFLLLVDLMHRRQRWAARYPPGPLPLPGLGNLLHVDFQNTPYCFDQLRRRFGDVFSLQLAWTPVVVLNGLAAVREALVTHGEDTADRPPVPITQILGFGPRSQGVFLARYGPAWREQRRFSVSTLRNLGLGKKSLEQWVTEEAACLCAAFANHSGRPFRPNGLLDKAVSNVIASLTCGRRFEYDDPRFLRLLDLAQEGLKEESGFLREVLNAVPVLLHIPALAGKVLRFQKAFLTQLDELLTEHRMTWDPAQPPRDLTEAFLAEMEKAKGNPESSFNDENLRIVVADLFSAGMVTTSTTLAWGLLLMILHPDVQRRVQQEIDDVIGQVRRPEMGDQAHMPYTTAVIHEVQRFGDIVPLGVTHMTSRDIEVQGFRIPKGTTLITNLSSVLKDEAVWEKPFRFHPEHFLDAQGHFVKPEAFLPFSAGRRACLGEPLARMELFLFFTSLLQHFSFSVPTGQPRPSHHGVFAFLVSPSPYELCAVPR
Chain of CYP3A4 (P08684 whole entry): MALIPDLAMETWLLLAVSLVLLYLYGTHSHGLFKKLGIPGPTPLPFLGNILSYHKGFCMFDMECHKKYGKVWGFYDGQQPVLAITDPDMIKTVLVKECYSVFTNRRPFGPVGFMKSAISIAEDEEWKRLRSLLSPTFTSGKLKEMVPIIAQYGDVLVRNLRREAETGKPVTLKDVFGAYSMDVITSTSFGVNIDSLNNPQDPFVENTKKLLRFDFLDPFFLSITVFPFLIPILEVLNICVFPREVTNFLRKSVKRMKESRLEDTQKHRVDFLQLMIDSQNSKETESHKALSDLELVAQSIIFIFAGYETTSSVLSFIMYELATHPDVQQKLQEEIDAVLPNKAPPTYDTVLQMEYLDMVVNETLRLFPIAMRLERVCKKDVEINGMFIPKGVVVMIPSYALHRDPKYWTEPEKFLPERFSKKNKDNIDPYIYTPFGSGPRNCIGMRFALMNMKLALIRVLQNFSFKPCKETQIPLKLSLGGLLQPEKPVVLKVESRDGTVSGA
Chain of Ba/F3-TEL-FGFR1 (P11362 478-767 limits assumed, one chain of several): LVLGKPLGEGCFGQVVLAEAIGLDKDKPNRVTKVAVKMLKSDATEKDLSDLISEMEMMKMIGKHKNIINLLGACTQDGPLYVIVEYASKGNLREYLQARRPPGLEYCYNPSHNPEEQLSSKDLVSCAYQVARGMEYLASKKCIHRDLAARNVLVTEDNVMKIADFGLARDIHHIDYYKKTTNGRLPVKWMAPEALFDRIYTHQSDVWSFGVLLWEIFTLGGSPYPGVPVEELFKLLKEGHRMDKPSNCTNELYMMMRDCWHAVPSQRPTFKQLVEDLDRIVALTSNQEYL
Chain of CYP2C19 (P33261 whole entry): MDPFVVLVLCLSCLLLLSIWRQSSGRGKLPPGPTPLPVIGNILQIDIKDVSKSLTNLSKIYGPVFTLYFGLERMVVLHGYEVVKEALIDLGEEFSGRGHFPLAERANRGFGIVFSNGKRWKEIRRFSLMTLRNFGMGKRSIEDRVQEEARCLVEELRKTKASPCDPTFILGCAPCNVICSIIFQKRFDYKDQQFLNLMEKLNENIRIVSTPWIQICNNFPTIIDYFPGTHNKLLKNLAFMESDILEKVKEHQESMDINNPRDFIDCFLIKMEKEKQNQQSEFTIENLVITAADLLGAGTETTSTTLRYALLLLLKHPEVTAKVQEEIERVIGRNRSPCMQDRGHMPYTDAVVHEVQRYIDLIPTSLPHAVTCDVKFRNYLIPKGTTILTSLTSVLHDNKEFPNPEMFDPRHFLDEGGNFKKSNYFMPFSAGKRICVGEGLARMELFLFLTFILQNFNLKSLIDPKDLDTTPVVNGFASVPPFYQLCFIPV

SMILES: C=C(C)C(=O)Nc1ccc(-c2c(-c3ccc(N=S4(=O)CCCC4)cc3)c3c(N)ncnc3n2C)c(F)c1 [Compound 24]
- IC50 (Ba/F3-TEL-FGFR2): 2.1 nM
- hepatocyte CLint ([1]; hepatocytes, read-out: in vitro CLint (µL/min/10^6 cells)): 37.1 µL/min/1e6 cells
- half-life ([1]; hepatocytes, read-out: in vitro t1/2): 37.3 min
- Remaining percentage of compound after 60 min of incubation (%) ([1]; 60 min): 37.55%
- IC50 (CYP2C19): 19.4 µM
- IC50 (CYP1A2): > 10 µM
- IC50 (CYP3A4): 10.7 µM
- AUC(0-t) [2]: 871 ng·h/mL
- Cmax [2]: 270 ng/mL
- Tmax [2]: 15 min
- half-life [2]: 85.8 min
- IC50 (CYP2D6): 14.3 µM
- IC50 (hERG): > 10 µM
- inhibition at 0.3 µM (hERG; human, hek-293 cells): -1.24%
- inhibition at 1 µM (hERG; human, hek-293 cells): 7.73%
- inhibition at 3 µM (hERG; human, hek-293 cells): 10.2%
- inhibition at 10 µM (hERG; human, hek-293 cells): 32.2%
- inhibition at 30 µM (hERG; human, hek-293 cells): 14.2%
- IC50 (Ba/F3-TEL-FGFR1): 1910 nM
- IC50 (CYP2C9): 29 µM
